Experimental data: publication PMC4496781, “Functional Roles of Aromatic Residues and Helices of Papiliocin in its Antimicrobial and Anti-inflammatory Activities” (Scientific Reports, 2015)
≈ marks a conversion by molar mass, not a printed value. Like-named read-outs stand apart in the source and are kept apart here. Ends that are not written are not given here.

How the values were obtained:
Bacillus subtilis = conditions: 16 h
Method: (§1) MICs of the peptides against six standard bacteria and four multidrug-resistant bacteria were determined by a broth microdilution assay as described previously. […] Cytotoxicities against mammalian cells were measured against human RBCs, mouse macrophage-derived RAW264.7 cells, and fibroblast NIH-3T3 cells. The anti-inflammatory activities of the peptides were examined by inhibiting nitrite production in LPS-stimulated RAW264.7 cells.

Eenterococcus faecalis = test system: Eenterococcus faecalis
Method: as §1

Escherichia coli = conditions: 16 h
Method: as §1

Pseudomonas aeruginosa = conditions: 16 h
Method: as §1

Salmonella typhimurium = conditions: murium, 16 h
Method: as §1

Staphylococcus aureus = conditions: 16 h
Method: as §1

MDRAB 12035(R) = conditions: broth microdilution, 16 h; unit not given
Method: (§2) We examined the antimicrobial activities of the peptides against multidrug-resistant bacterial strains, including four gram-negative species (S. typhimurium 8009(R), E. coli 1229(R), P. aeruginosa 2095(R), and A. baumannii 12035(R); Table 3).
as §1

MDREC 1229(R) = conditions: 16 h
Method: as §2, §1

MDRPA 2095(R) = conditions: 16 h
Method: as §2, §1

MDRST 8009(R) = conditions: broth microdilution, 16 h; unit not given
Method: as §2, §1

[1] = test system: gram-negative bacteria (E. coli, S. typhimurium, P. aeruginosa); conditions: for Therapeutic Index (MHC/GM), gram-negative: ratio MHC (μM) over GM of MIC (μM)
Method: (§3) This property is assessed by the therapeutic index which can be defined as a ratio of the […] against human hRBCs to the MIC against bacterial cells.
as §1

[2] = test system: gram-positive bacteria (B. subtilis, E. faecalis, S. aureus); conditions: for Therapeutic Index (MHC/GM), gram-positive: ratio MHC (μM) over GM of MIC (μM)
Method: as §3, §1

human erythrocytes = assay: Hemolytic activity; assay type: cell-based; conditions: human RBCs; 200 μM entered when no detectable hemolysis at 100 μM
Method: (§4) We examined the cytotoxicity against human erythrocytes. […] Next, we examined the cytotoxicity of the peptides against RAW264.7 macrophage cells. We assessed the effects of the peptides on cell growth by measuring mitochondrial reduction of MTT to a colored product in live cells. […] On the other hand, PapC produced high cytotoxicity against RAW264.7 cells, even at low concentrations. […] In case of PapN-2A, Pap-5A, and Pap-2A5A, the cell survival rates at a peptide concentration of 100 μM were approximately 90% or more. Thus, Trp^2 and Phe^5 are important for the cytotoxic activity of papiliocin toward RAW264.7 cells.
as §1

[3] = test system: RAW264.7 macrophage cells; assay: Cytotoxicity, MTT; assay type: cell-based, mouse; conditions: hRBCs and RAW264.7 cells (Fig. 4A,B)
Method: as §4, §1

[4] = Calcein leakage from zwitterionic LUVs; conditions: EYPC/CH 10:1 LUVs, mimic human erythrocytes
Method: Figure 5 Dose-response curves of calcein leakage from (A) egg yolk phosphatidylcholine (EYPC)/egg yolk phosphatidylglycerol (EYPG) (7:3, w:w) and (B) EYPC/cholesterol (CH) large unilamellar vesicles (LUVs; 10:1, w-w) induced by the peptides. Calcein leakage was measured 2 min after the addition of papiliocin. The lipid concentration used in the leakage experiments was 64 μM.
None of the peptides containing the N-terminal helix permeated zwitterionic vesicles (10:1 [w/w] EYPC/CH) effectively. Zwitterionic vesicles mimic the outer leaflet components of human erythrocytes.
In order to investigate the mode of action, membrane permeabilization ability was monitored using a model membrane and E.coli. Calcein leakage induced by the peptides was measured in egg yolk phosphatidylcholine (EYPC)/egg yolk phosphatidylglycerol (EYPG) (7:3, w/w) and EYPC/cholesterol (CH) large unilamellar vesicles (LUVs; 10:1, w:w) as described previously. The depolarization assay was conducted with intact E. coli bacteria (KCTC 1682) as well as E. coli spheroplasts (ATCC 25922)[51][52]. The ability of peptide to depolarize the membrane is indicated by an increase in the fluorescence of diSC3-5. […] The membrane potential dissipating activity of the peptides can be calculated as follows: […]

[5] = broth microdilution, unit not given

Compound: RAKIAKKIEKVGRNVRDGIIKAGPAVAVVGQAATVVK-NH2 [Papiliocin-2A5A]
- MIC, Bacillus subtilis (Bacillus subtilis): 128 µM
- MIC, Eenterococcus faecalis (Eenterococcus faecalis; E, 16 h): >128 µM
- MIC, Escherichia coli (Escherichia coli): 0.500 µM
- MIC, Pseudomonas aeruginosa (Pseudomonas aeruginosa): 0.500 µM
- MIC, Salmonella typhimurium (Salmonella typhimurium): 1.00 µM
- MIC, Staphylococcus aureus (Staphylococcus aureus): >128 µM
- MIC, MDRAB 12035(R) (MDRAB 12035(R)): 0.500 µM
- MIC, MDREC 1229(R) (MDREC 1229(R)): 2.00 µM
- MIC, MDRPA 2095(R) (MDRPA 2095(R)): 1.00 µM
- MIC, MDRST 8009(R) (MDRST 8009(R)): 4.00 µM
- GM of the MIC values, gram-negative ([1]; 16 h): 0.667 µM
- GM of the MIC values, gram-positive ([2]; 16 h): 213 µM
- Therapeutic Index (MHC/GM), gram-positive [2]: 0.939

Compound: RWKIFKKIEKVGRNVRDGIIKA-NH2 [PapN]
- MIC, Bacillus subtilis (Bacillus subtilis): 8.00 µM
- MIC, Eenterococcus faecalis (Eenterococcus faecalis; E, 16 h): 64.0 µM
- MIC, Escherichia coli (Escherichia coli): 1.00 µM
- MIC, Pseudomonas aeruginosa (Pseudomonas aeruginosa): 2.00 µM
- MIC, Salmonella typhimurium (Salmonella typhimurium): 2.00 µM
- MIC, Staphylococcus aureus (Staphylococcus aureus): 8.00 µM
- MIC, MDRAB 12035(R) (MDRAB 12035(R)): 2.00 µM
- MIC, MDREC 1229(R) (MDREC 1229(R)): 4.00 µM
- MIC, MDRPA 2095(R) (MDRPA 2095(R)): 2.00 µM
- MIC, MDRST 8009(R) (MDRST 8009(R)): 2.00 µM
- GM of the MIC values, gram-negative ([1]; 16 h): 1.67 µM
- Therapeutic Index (MHC/GM), gram-negative [1]: 120
- GM of the MIC values, gram-positive ([2]; 16 h): 26.7 µM

Compound: RWKIAKKIEKVGRNVRDGIIKAGPAVAVVGQAATVVK-NH2 [Papiliocin-5A]
- MIC, Bacillus subtilis (Bacillus subtilis): 64.0 µM
- MIC, Eenterococcus faecalis (Eenterococcus faecalis; E, 16 h): 128 µM
- MIC, Escherichia coli (Escherichia coli): 0.250 µM
- MIC, Pseudomonas aeruginosa (Pseudomonas aeruginosa): 0.500 µM
- MIC, Salmonella typhimurium (Salmonella typhimurium): 0.500 µM
- MIC, Staphylococcus aureus (Staphylococcus aureus): 128 µM
- MIC, MDRAB 12035(R) (MDRAB 12035(R)): 0.500 µM
- MIC, MDREC 1229(R) (MDREC 1229(R)): 1.00 µM
- MIC, MDRPA 2095(R) (MDRPA 2095(R)): 1.00 µM
- MIC, MDRST 8009(R) (MDRST 8009(R)): 1.00 µM
- GM of the MIC values, gram-negative ([1]; 16 h): 0.417 µM
- GM of the MIC values, gram-positive ([2]; 16 h): 107 µM
- Therapeutic Index (MHC/GM), gram-positive [2]: 1.87

Compound: RAKIFKKIEKVGRNVRDGIIKA-NH2 [PapN-2A]
- MIC, Bacillus subtilis (Bacillus subtilis): 32.0 µM
- MIC, Eenterococcus faecalis (Eenterococcus faecalis; E, 16 h): 128 µM
- MIC, Escherichia coli (Escherichia coli): 2.00 µM
- MIC, Pseudomonas aeruginosa (Pseudomonas aeruginosa): 4.00 µM
- MIC, Salmonella typhimurium (Salmonella typhimurium): 4.00 µM
- MIC, Staphylococcus aureus (Staphylococcus aureus): 32.0 µM
- MIC, MDRAB 12035(R) (MDRAB 12035(R)): 8.00 µM
- MIC, MDREC 1229(R) (MDREC 1229(R)): 2.00 µM
- MIC, MDRPA 2095(R) (MDRPA 2095(R)): 4.00 µM
- MIC, MDRST 8009(R) (MDRST 8009(R)): 2.00 µM
- GM of the MIC values, gram-negative ([1]; 16 h): 3.33 µM
- Therapeutic Index (MHC/GM), gram-negative [1]: 60.0
- GM of the MIC values, gram-positive ([2]; 16 h): 64.0 µM
- Therapeutic Index (MHC/GM), gram-positive [2]: 3.13

Compound: CC[C@H](C)[C@H](NC(=O)CN)C(=O)NCC(=O)N[C@@H](C)C(=O)N[C@H](C(=O)N[C@@H](CC(C)C)C(=O)N[C@@H](CCCCN)C(=O)N[C@H](C(=O)N[C@@H](CC(C)C)C(=O)N[C@H](C(=O)N[C@H](C(=O)NCC(=O)N[C@@H](CC(C)C)C(=O)N1CCC[C@H]1C(=O)N[C@@H](C)C(=O)N[C@@H](CC(C)C)C(=O)N[C@H](C(=O)N[C@@H](CO)C(=O)N[C@@H](Cc1c[nH]c2ccccc12)C(=O)N[C@H](C(=O)N[C@@H](CCCCN)C(=O)N[C@@H](CCCNC(=N)N)C(=O)N[C@@H](CCCCN)C(=O)N[C@@H](CCCNC(=N)N)C(=O)N[C@@H](CCC(N)=O)C(=O)N[C@@H](CCC(N)=O)C(N)=O)[C@@H](C)CC)[C@@H](C)CC)[C@@H](C)O)[C@@H](C)O)C(C)C)C(C)C [Melittin, reference compound]
- MIC, Eenterococcus faecalis (Eenterococcus faecalis; broth microdilution, 16 h incubation, three independent experiments in triplicate, SD 14.0%): 2.00 µM (≈ 5.69 µg/mL)
- MIC, MDRAB 12035(R) (MDRAB 12035(R)): 4.00 µM (≈ 11.4 µg/mL)
- MIC, MDREC 1229(R) (MDREC 1229(R); [5]): 8.00 µM (≈ 22.8 µg/mL)
- MIC, MDRPA 2095(R) (MDRPA 2095(R); [5]): 2.00 µM (≈ 5.69 µg/mL)
- MIC, MDRST 8009(R) (MDRST 8009(R)): 8.00 µM (≈ 22.8 µg/mL)
- Therapeutic Index (MHC/GM), gram-negative [1]: 0.098
- GM of the MIC values, gram-negative ([1]; three gram-negative standard strains, 256 μM used when no activity at 128 μM): 4.00 µM
- Therapeutic Index (MHC/GM), gram-positive [2]: 0.117
- GM of the MIC values, gram-positive ([2]; three gram-positive standard strains, 256 μM used when no activity at 128 μM): 3.33 µM
- MHC (minimal peptide concentration that produces hemolysis) (human erythrocytes): 0.391 µM
- cytotoxicity at the peptide's MIC [3]: high cytotoxicity at its MIC
- permeabilization of zwitterionic vesicles, in words [4]: membrane-disrupting activities against both negatively charged and zwitterionic vesicles
